Experimental data: patent US20100004250A1, “PTERIDINE DERIVATIVES AS POLO-LIKE KINASE INHIBITORS USEFUL IN THE TREATMENT OF CANCER” (CHROMA THERAPEUTICS LTD., priority 2006, published 2010)
pIC50: −log10 of the molar value.

Legend:
HCT 116 cell line = assay: Cell inhibition assay (WST-1 proliferation); type: cell-based; conditions: Homo sapiens, 120 hrs incubation, read-out: Inhibitor Activity vs HCT 116 cell line
Experimental: Cells were seeded in 96W tissue culture plates (1 well=30 mm^2) at a density of 500 cells per well in 50 μl of the appropriate culture medium (see below). 24 hrs later 50 μl of the compound prepared in the same medium was added as 4 fold dilutions to give final concentrations in the range 0.15 nM-2500 nM (n=6 for each concentration). The plates were then incubated at 37° C., 5% CO2 for 120 hrs. Cell proliferation was assessed using WST-1 (a metabolic indicator dye, Roche Cat no. 1 644 807) according to the manufacturers instructions. The results were calculated as percentage of vehicle response and IC50 values represent the concentration of compound that inhibited the vehicle response by 50%.
HCT-116 Culture Medium—Dulbeccos MEM (Sigma D6546) plus 10% heat inactivated fetal calf serum (Hyclone SH30071 Thermo Fischer Scientific) containing 2 mM Glutamine (Sigma cat no G-7513) and 50 U/ml Penicillin and Streptomycin Sulphate (Sigma Cat no P-0781).

PLK1 = biological target: T1, PLK1 (Homo sapiens, UniProt P53350); assay: PLK1 enzyme assay (Z'-LYTE, Invitrogen); type: biochemical; conditions: ATP at or close to Km, 60 minute kinase reaction; read-out: Inhibitor Activity vs PLK1
T1 construct: purchased Invitrogen (Paisley, UK), assay service
T1 sequence (P53350 whole entry): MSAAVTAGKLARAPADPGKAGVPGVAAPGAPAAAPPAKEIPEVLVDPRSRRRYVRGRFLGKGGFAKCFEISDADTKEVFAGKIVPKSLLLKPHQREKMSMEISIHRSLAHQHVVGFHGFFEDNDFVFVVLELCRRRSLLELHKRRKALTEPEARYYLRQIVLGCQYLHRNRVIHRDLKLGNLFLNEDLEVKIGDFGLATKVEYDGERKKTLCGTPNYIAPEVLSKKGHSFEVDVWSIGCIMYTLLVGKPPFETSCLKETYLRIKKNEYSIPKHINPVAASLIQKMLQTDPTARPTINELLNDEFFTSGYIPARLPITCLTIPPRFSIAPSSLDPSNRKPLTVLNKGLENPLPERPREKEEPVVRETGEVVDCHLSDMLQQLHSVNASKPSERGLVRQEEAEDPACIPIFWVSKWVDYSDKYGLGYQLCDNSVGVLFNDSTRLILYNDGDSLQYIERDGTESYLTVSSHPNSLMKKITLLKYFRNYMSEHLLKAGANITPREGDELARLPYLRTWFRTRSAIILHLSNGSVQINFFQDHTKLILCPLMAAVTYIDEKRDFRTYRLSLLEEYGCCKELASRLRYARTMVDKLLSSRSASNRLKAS
Experimental: The ability of compounds to inhibit PLK-1 kinase activity was measured in an assay performed by Invitrogen (Paisley, UK). The Z′-LYTE™ biochemical assay employs a fluorescence-based, coupled-enzyme format and is based on the differential sensitivity of phosphorylated and non-phosphorylated peptides to proteolytic cleavage. The peptide substrate is labelled with two fluorophores—one at each end—that make up a FRET pair. In the primary reaction, the kinase transfers the gamma-phosphate of ATP to a single serine or threonine residue in a synthetic FRET-peptide. In the secondary reaction, a site-specific protease recognizes and cleaves non-phosphorylated FRET-peptides. Phosphorylation of FRET-peptides suppresses cleavage by the Development Reagent. Cleavage disrupts FRET between the donor (i.e., coumarin) and acceptor (i.e., fluorescein) fluorophores on the FRET-peptide, whereas uncleaved, phosphorylated FRET-peptides maintain FRET. A […] method, which calculates the ratio (the Emission Ratio) of donor emission to acceptor emission after excitation of the donor fluorophore at 400 nm, is used to quantitate reaction progress.
The final 10 μl Kinase Reaction consists of 2.8-25.3 ng PLK1, 2 μM Ser/Thr 16 Peptide substrate and ATP in 50 mM HEPES pH 7.5, 0.01% BRIJ-35, 10 mM MgCl2, 1 mM EGTA. The assay is performed at an ATP concentration at, or close to, the Km. After the 60 minute Kinase Reaction incubation at room temperature, 5 μl of a 1:8 dilution of Development Reagent is added. The assay plate is incubated for a further 60 minutes at room temperature and read on a fluorescence plate reader.
Duplicate data points are generated from a ⅓ log dilution series of a stock solution of test compound in DMSO. Nine dilutions steps are made from a top concentration of 10 μM, and a “no compound” blank is included. Data is collected and analysed using XLfit software from IDBS. The dose response curve is curve fitted to model number 205 (sigmoidal dose-response model). From the curve generated, the concentration giving 50% inhibition is determined and reported.

Compound | pIC50 (HCT 116 cell line) | pIC50 (PLK1)
CC[C@@H]1C(=O)N(C)c2cnc(Nc3ccc(C(=O)NC4CCN(CCCC(=O)N[C@@H](C(=O)OC5CCCC5)c5ccccc5)CC4)cc3OC)nc2N1C1CCCC1 [Example 4, Cyclopentyl (2R)-[(4-{4-[(4-{[(7R)-8-cyclopentyl-7-ethyl-5-methyl-6-oxo-5,6,7,8-tetrahydropteridin-2-yl]amino}-3-methoxybenzoyl)amino]piperidin-1-yl}butanoyl)amino](phenyl)acetate] | > 7.00 | > 7.00
CC[C@@H]1C(=O)N(C)c2cnc(Nc3c(F)cc(/C=C/CCCC(=O)N[C@@H](CC(C)C)C(=O)OC4CCCC4)cc3F)nc2N1C1CCCC1 [Example 16, Cyclopentyl N-[(5E)-6-(4-{[(7R)-8-cyclopentyl-7-ethyl-5-methyl-6-oxo-5,6,7,8-tetrahydropteridin-2-yl]amino}-3,5-difluorophenyl)hex-5-enoyl]-L-leucinate] | < 6.30 | 6.30 to 7.00
CC[C@@H]1C(=O)N(C)c2cnc(Nc3ccc(C(=O)NC4CCN(CCOC(=O)N[C@@H](CC(C)C)C(=O)OC5CCCC5)CC4)cc3OC)nc2N1C1CCCC1 [Example 11, Cyclopentyl N-[(2-{4-[(4-{[(7R)-8-cyclopentyl-7-ethyl-5-methyl-6-oxo-5,6,7,8-tetrahydropteridin-2-yl]amino}-3-methoxybenzoyl)amino]piperidin-1-yl}ethoxy)carbonyl]-L-leucinate] | > 7.00 | > 7.00
CC[C@@H]1C(=O)N(C)c2cnc(Nc3ccc(C(=O)NC4CCN(CCCC(=O)N[C@@H](CC(C)C)C(=O)OC5CCCC5)CC4)cc3OC)nc2N1C1CCCC1 [Example 1, Cyclopentyl N-(4-{4-[(4-{[(7R)-8-cyclopentyl-7-ethyl-5-methyl-6-oxo-5,6,7,8-tetrahydropteridin-2-yl]amino}-3-methoxybenzoyl)amino]piperidin-1-yl}butanoyl)-L-leucinate] | > 7.00 | > 7.00
CC[C@@H]1C(=O)N(C)c2cnc(Nc3ccc(C(=O)Nc4ccc(CCCC(=O)N[C@@H](CC(C)C)C(=O)OC5CCCC5)cc4)cc3OC)nc2N1C1CCCC1 [Example 12, Cyclopentyl N-(4-{4-[(4-{[(7R)-8-cyclopentyl-7-ethyl-5-methyl-6-oxo-5,6,7,8-tetrahydropteridin-2-yl]amino}-3-methoxybenzoyl)amino]phenyl}butanoyl)-L-leucinate] | > 7.00 | 6.30 to 7.00
CC[C@@H]1C(=O)N(C)c2cnc(Nc3ccc(C(=O)NC4CCN(CCCCC(=O)N[C@@H](CC(C)C)C(=O)OC5CCCC5)CC4)cc3OC)nc2N1C1CCCC1 [Example 6, Cyclopentyl N-(5-{4-[(4-{[(7R)-8-cyclopentyl-7-ethyl-5-methyl-6-oxo-5,6,7,8-tetrahydropteridin-2-yl]amino}-3-methoxybenzoyl)amino]piperidin-1-yl}pentanoyl)-L-leucinate] | > 7.00 | > 7.00
CC[C@@H]1C(=O)N(C)c2cnc(Nc3ccc(/C=C/CCCC(=O)N[C@@H](CC(C)C)C(=O)OC4CCCC4)cc3F)nc2N1C1CCCC1 [Example 14, Cyclopentyl N-[(5E)-6-(4-{[(7R)-8-cyclopentyl-7-ethyl-5-methyl-6-oxo-5,6,7,8-tetrahydropteridin-2-yl]amino}-3-fluorophenyl)hex-5-enoyl]-L-leucinate] | < 6.30 | 6.30 to 7.00
CC[C@@H]1C(=O)N(C)c2cnc(Nc3ccc(C(=O)NC4CCN(CCCC(=O)N[C@H](CC(C)C)C(=O)OC5CCCC5)CC4)cc3OC)nc2N1C1CCCC1 [Example 2, Cyclopentyl N-(4-{4-[(4-{[(7R)-8-cyclopentyl-7-ethyl-5-methyl-6-oxo-5,6,7,8-tetrahydropteridin-2-yl]amino}-3-methoxybenzoyl)amino]piperidin-1-yl}butanoyl)-D-leucinate] | > 7.00 | > 7.00
CC[C@@H]1C(=O)N(C)c2cnc(Nc3ccc(C(=O)NCCCC(=O)N[C@@H](CC(C)C)C(=O)OC4CCCC4)cc3OC)nc2N1C1CCCC1 [Example 13, Cyclopentyl N-{4-[(4-{[(7R)-8-cyclopentyl-7-ethyl-5-methyl-6-oxo-5,6,7,8-tetrahydropteridin-2-yl]amino}-3-methoxybenzoyl)amino]butanoyl}-L-leucinate] | 6.30 to 7.00 | 6.30 to 7.00

Other lines, results leading:

pIC50 (HCT 116 cell line) | pIC50 (PLK1) | Compound
< 6.30 | 6.30 to 7.00 | CC[C@@H]1C(=O)N(C)c2cnc(Nc3ccc(C(=O)NC4CCN(CCCC(=O)N[C@@H](C(=O)OC5CCCC5)C5CCCCC5)CC4)cc3OC)nc2N1C1CCCC1 [Example 5, Cyclopentyl (2R)-cyclohexyl [(4-{4-[(4-{[(7R)-8-cyclopentyl-7-ethyl-5-methyl-6-oxo-5,6,7,8-tetrahydropteridin-2-yl]amino}-3-methoxybenzoyl)amino]piperidin-1-yl}butanoyl)amino]acetate]
> 7.00 | 6.30 to 7.00 | CC[C@@H]1C(=O)N(C)c2cnc(Nc3ccc(C(=O)NC4CCN(CC(=O)N[C@@H](CC(C)C)C(=O)OC5CCCC5)CC4)cc3OC)nc2N1C1CCCC1 [Example 7, Cyclopentyl N-({4-[(4-{[(7R)-8-cyclopentyl-7-ethyl-5-methyl-6-oxo-5,6,7,8-tetrahydropteridin-2-yl]amino}-3-methoxybenzoyl)amino]piperidin-1-yl}acetyl)-L-leucinate]
> 7.00 | > 7.00 | CC[C@@H]1C(=O)N(C)c2cnc(Nc3ccc(C(=O)NC4CCN(CCNC(=O)N[C@H](C(=O)OC5CCCC5)c5ccccc5)CC4)cc3OC)nc2N1C1CCCC1 [Example 9, Cyclopentyl (2S)-{[(2-{4-[(4-{[(7R)-8-cyclopentyl-7-ethyl-5-methyl-6-oxo-5,6,7,8-tetrahydropteridin-2-yl]amino}-3-methoxybenzoyl)amino]piperidin-1-yl}ethyl)carbamoyl]amino}(phenyl)acetate]
> 7.00 | 6.30 to 7.00 | CC[C@@H]1C(=O)N(C)c2cnc(Nc3ccc(C(=O)NC4CCN(CCNC(=O)N[C@H](C(=O)OC5CCCC5)C5CCCCC5)CC4)cc3OC)nc2N1C1CCCC1 [Example 10, Cyclopentyl (2S)-cyclohexyl{[(2-{4-[(4-{[(7R)-8-cyclopentyl-7-ethyl-5-methyl-6-oxo-5,6,7,8-tetrahydropteridin-2-yl]amino}-3-methoxybenzoyl)amino]piperidin-1-yl}ethyl)carbamoyl]amino}acetate]
> 7.00 | > 7.00 | CC[C@@H]1C(=O)N(C)c2cnc(Nc3ccc(C(=O)NC4CCN(CCNC(=O)N[C@@H](CC(C)C)C(=O)OC5CCCC5)CC4)cc3OC)nc2N1C1CCCC1 [Example 8, Cyclopentyl N-[(2-{4-[(4-{[(7R)-8-cyclopentyl-7-ethyl-5-methyl-6-oxo-5,6,7,8-tetrahydropteridin-2-yl]amino}-3-methoxybenzoyl)amino]piperidin-1-yl}ethyl)carbamoyl]-L-leucinate]
